The values below are quoted from earlier work in patent US20100028446A1, “TRANSPORT OF DRUGS VIA THE BLOOD-BRAIN BARRIER BY MEANS OF APOLIPOPROTEINS” (priority 2007, published 2010).

For the data set the following is noted: loaded on hydrophilic-protein nanoparticles coupled with apolipoprotein E.

On to Dalargin, for which the “transport across the blood-brain barrier” value is “successfully transported across the blood-brain barrier”.
